Source: the supplement of paper PMC10627819

Tests used:
[1] = test system: B. subtilis 168; assay: fitness (endpoint OD595 vs no drug) (fraction); higher = more growth
Outline: (§1)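 At 37 °C, bacteria in TSB, LB Lennox or CY were grown in 384-well plates from a starting OD595 of 0.01. OD595 was measured every 30 min for 14 h, with the first reading used as background. Fitness is the optical density at the switch to stationary phase as a fraction of the robust mean of no-drug control wells, capped at 1.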

[2] = test system: S. aureus DSM 20231; assay: as above
Outline: as §1

[3] = test system: S. aureus Newman; assay: as above
Outline: as §1

[4] = test system: S. pneumoniae D39V; assay: as above
Outline: as §1

[5] = test system: B. subtilis 168; assay: Bliss interaction score (quartile over a dose matrix) (fitness difference); higher = more antagonism (negative = synergy)
Outline: (§2)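 Growth was read as OD595 when cultures entered stationary phase, and each value was divided by the plate's robust no-drug mean and capped at 1. This normalised ratio is the fitness value, and fitness for each single drug came from the combination data. The Bliss score subtracts the expected fitness, taken as the product, from the observed fitness and is given as quartiles across technical, biological and donor/recipient replicates.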

[6] = test system: S. aureus DSM 20231; assay: as above
Outline: as §2

[7] = test system: S. aureus Newman; assay: as above
Outline: as §2

[8] = test system: S. pneumoniae D39V; assay: as above
Outline: as §2
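Throughout, for Bliss interaction score (quartile over a dose matrix): first quartile when negative (synergy) and third quartile when positive (antagonism).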
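Throughout, for fitness (endpoint OD595 vs no drug): OD595 on entry to stationary phase over no-drug wells; at most 1.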

COc1cccc2c1C(=O)c1c(O)c3c(c(O)c1C2=O)C[C@@](O)(C(=O)CO)C[C@@H]3O[C@H]1C[C@H](N)[C@H](O)[C@H](C)O1 [Doxorubicin] + CN1C2=CC=CC=C2N=C3C1=CC=CC3=O [Pyocyanin]
Settings	fitness
[1], first compound 0.625 µg/mL, partner 1.25 µg/mL	0.888
[1], first compound 0.625 µg/mL, partner 2.5 µg/mL	0.878
[1], first compound 0.625 µg/mL, partner 5 µg/mL	0.684
[1], first compound 1.25 µg/mL, partner 1.25 µg/mL	0.853
[1], first compound 1.25 µg/mL, partner 2.5 µg/mL	0.841
[1], first compound 1.25 µg/mL, partner 5 µg/mL	0.625
[1], first compound 2.5 µg/mL, partner 1.25 µg/mL	0.631
[1], first compound 2.5 µg/mL, partner 2.5 µg/mL	0.54
[2], first compound 0.625 µg/mL, partner 1.25 µg/mL	0.863
[2], first compound 0.625 µg/mL, partner 2.5 µg/mL	0.827
[2], first compound 0.625 µg/mL, partner 5 µg/mL	0.578
[2], first compound 1.25 µg/mL, partner 1.25 µg/mL	0.857
[2], first compound 1.25 µg/mL, partner 2.5 µg/mL	0.865
[2], first compound 1.25 µg/mL, partner 5 µg/mL	0.641
[2], first compound 2.5 µg/mL, partner 1.25 µg/mL	0.744
[2], first compound 2.5 µg/mL, partner 2.5 µg/mL	0.699
[2], first compound 2.5 µg/mL, partner 5 µg/mL	0.487
[3], first compound 0.625 µg/mL, partner 1.25 µg/mL	0.733
[3], first compound 0.625 µg/mL, partner 2.5 µg/mL	0.687
[3], first compound 0.625 µg/mL, partner 5 µg/mL	0.438
[3], first compound 1.25 µg/mL, partner 1.25 µg/mL	0.716
[3], first compound 1.25 µg/mL, partner 2.5 µg/mL	0.639
[3], first compound 2.5 µg/mL, partner 1.25 µg/mL	0.674
[3], first compound 2.5 µg/mL, partner 2.5 µg/mL	0.584
[4], first compound 0.25 µg/mL, partner 0.325 µg/mL	0.986
[4], first compound 0.25 µg/mL, partner 0.65 µg/mL	0.92
[4], first compound 0.25 µg/mL, partner 1.3 µg/mL	0.766
[4], first compound 0.5 µg/mL, partner 0.325 µg/mL	≥ 1
[4], first compound 0.5 µg/mL, partner 0.65 µg/mL	0.938
[4], first compound 0.5 µg/mL, partner 1.3 µg/mL	0.773
[4], first compound 1 µg/mL, partner 0.325 µg/mL	0.942
[4], first compound 1 µg/mL, partner 0.65 µg/mL	0.868
[4], first compound 1 µg/mL, partner 1.3 µg/mL	0.729

Settings	Bliss interaction score
[5]	0.0456
[6]	-0.0672
[7]	-0.0556
[8]	0.0322

Cc1ncc([N+](=O)[O-])n1CCO [Metronidazole] + Cc1onc(-c2ccccc2)c1C(=O)N[C@@H]1C(=O)N2[C@@H]1SC(C)(C)[C@@H]2C(=O)O [Oxacillin]
fitness
Settings	first compound 0.625 µg/mL	first compound 1.073 µg/mL	first compound 1.25 µg/mL	first compound 2.145 µg/mL	first compound 2.5 µg/mL	first compound 4.29 µg/mL	first compound 5 µg/mL
[1], partner 0.002 µg/mL	0.972	–	0.962	–	0.942	–	–
[1], partner 0.004 µg/mL	0.957	–	≥ 1	–	0.942	–	–
[1], partner 0.008 µg/mL	0.946	–	0.869	–	0.858	–	–
[2], partner 0.0156 µg/mL	0.937	–	≥ 1	–	0.991	–	–
[2], partner 0.0312 µg/mL	–	–	0.816	–	0.828	–	–
[2], partner 0.0625 µg/mL	0.632	–	0.645	–	–	–	–
[3], partner 0.0156 µg/mL	0.772	–	0.785	–	0.768	–	–
[3], partner 0.0312 µg/mL	0.737	–	0.786	–	0.702	–	–
[3], partner 0.0625 µg/mL	0.658	–	0.551	–	0.601	–	–
[4], partner 0.01 µg/mL	–	0.971	0.985	0.891	0.981	0.965	0.97
[4], partner 0.02 µg/mL	–	0.964	0.959	0.967	0.995	–	0.948
[4], partner 0.04 µg/mL	–	0.845	0.625	0.888	0.648	0.839	0.566

fitness, one replicate
Settings	first compound 0.625 µg/mL	first compound 0.781 µg/mL	first compound 1.25 µg/mL	first compound 1.562 µg/mL	first compound 2.5 µg/mL	first compound 3.124 µg/mL
[1], partner 0.075 µg/mL	0.548	–	0.664	–	0.507	–
[1], partner 0.15 µg/mL	0.0434	–	0.0679	–	0.0716	–
[1], partner 0.3 µg/mL	0.0488	–	0.0601	–	0.0718	–
[3], partner 0.0156 µg/mL	–	0.826	–	0.749	–	0.817
[3], partner 0.0312 µg/mL	–	0.737	–	0.737	–	0.721
[3], partner 0.0625 µg/mL	–	0.655	–	0.643	–	0.705

Settings	Bliss interaction score
[5]	0.0534
[6]	0.0451
[7]	0.0703
[8]	0.144
